Source: ChEMBL document CHEMBL1151105, “Antitumor principles in mosses: the first isolation and identification of maytansinoids, including a novel 15-methoxyansamitocin P-3” (J Nat Prod, 1988)
Activity calls are given as the source filed them. The calls are words filed in the database; no cut-off is given here.

The compounds below were run on P388 (assay: Cytotoxicity against mouse P388 cells after 48 hrs).
Format: functional, cell-based
With COc1cc2cc(c1Cl)N(C)C(=O)C[C@H](OC(=O)C(C)N(C)C(=O)C(C)C)[C@]1(C)O[C@H]1[C@H](C)[C@@H]1C[C@@](O)(NC(=O)O1)[C@H](OC)/C=C/C=C(\C)C2OC (some centres undefined) the Activity was “Active”. With COc1cc2cc(c1Cl)N(C)C(=O)C[C@H](OC(=O)C(C)C)[C@]1(C)O[C@H]1[C@H](C)[C@@H]1C[C@@](O)(NC(=O)O1)[C@H](OC)/C=C/C=C(\C)C2 the Activity was “Active”. In the case of COc1cc2cc(c1Cl)N(C)C(=O)C[C@H](OC(=O)C(C)N(C)C(=O)C(C)C)[C@]1(C)O[C@H]1[C@H](C)[C@@H]1C[C@@](O)(NC(=O)O1)[C@H](OC)/C=C/C=C(\C)C2 (some centres undefined), the Activity is reported as “Active”. COc1cc2cc(c1Cl)N(C)C(=O)C[C@H](OC(=O)C(C)C)[C@]1(C)O[C@H]1[C@H](C)[C@@H]1C[C@@](O)(NC(=O)O1)[C@H](OC)/C=C/C=C(\C)C2OC (some centres undefined) was tested, and the Activity was “Active”.
